Results published in PMC6271298, “Pharmacophore Generation from a Drug-like Core Molecule Surrounded by a Library Peptide via the 10BASEd-T on Bacteriophage T7” (Molecules, 2014).

Tested on: Sal-conjugated peptide-streptavidin complex
Assay: Competitive binding assay with biotin (fluorescence polarization)
Conditions: various concentrations of biotin; 20 nM peptide (4 pmol) and 15 μM streptavidin (3 nmol); 50 mM Tris-HCl, pH 8.0, 150 mM NaCl, 1 mM TCEP-NaOH
Experimental: (B) Competitive binding assay. Biotin as a competitor was mixed with the Sal-conjugated peptide-streptavidin complex.
Fluorescence polarization was measured with a HYBRID-3000ES (Photoscience, Tokyo, Japan) equipped with appropriate filters (Ex. 480 nm and Em. 535/40 nm). The Sal-conjugated fluorescent peptide (4 pmol) was incubated with various concentrations of streptavidin, NeutrAvidin, or bovine serum albumin (BSA) in tris-buffered saline (50 mM Tris-HCl, pH 8.0, 150 mM NaCl) supplemented with 1 mM TCEP-NaOH at 30 °C. Concentration of the fluorescent peptide was determined by absorption coefficient at 495 nm. NeutrAvidin® and BSA were purchased from Thermo Scientific and Nacalai tesque, respectively. Concentrations of streptavidin and NeutrAvidin were determined by absorption coefficient at 280 nm. Concentration of BSA was determined by Bradford protein assay (Bio-Rad). Klotz plot was generated by GraphPad Prism software 6.0 (GraphPad Software, San Diego, CA, USA), and the sigmoid curve was fitted with non-linear least squares analysis to obtain the dissociation constant. […] For the competitive binding assay, various concentrations of biotin were added to the solution containing Sal-conjugated peptide-streptavidin complex (4 pmol of the peptide and 3 nmol of streptavidin; 20 nM and 15 μM, respectively). Biotin was purchased from New England Biolabs (Ipswich, MA, USA).

## O=C(O)CCCC[C@@H]1SC[C@@H]2NC(=O)N[C@@H]21 [biotin]
  disruption of Sal-conjugated peptide-streptavidin interaction by biotin: fully disrupted
